Results as given in patent US20220370566A1, “METHOD AND COMPOSITIONS FOR TREATING DECREASED COGNITIVE ABILITY” (Saint Louis University, priority 2018, published 2022).
Several values for one entry are separate records, joined by “and”; a condition that tells them apart may be missing. Equal values may be shown once.

Columns and labels:
[1] = system: subjects with diet-induced obesity; conditions: Kumar et al. 2008, Gao et al. 2014, 2015; cited from earlier work
[2] = system: male C57BL/6J (B6) mice, aged 18 months; experiment: Novel Object Recognition test, aged mice treated with adropin^34-76; format: in vivo, mouse
Description: For the novel object recognition task, mice are habituated to an empty apparatus, a 58×66×11-cm white plastic box, for 5 min a day for 3 consecutive days prior to entry of objects. On the first day of training, mice are placed in the testing apparatus with two identical objects (A and B). 24h later the animal is reintroduced to the arena but this time one of the original objects is removed and a new object (C). Total time spent exploring each of the two objects is recorded. Anxiety will be assessed using open field and elevated plus maze tests. The experimental apparatus consists of a central platform, two open arms and two equal-sized closed arms opposite to each other. The test consisted of placing a mouse in the central platform facing an enclosed arm and allowing it to freely explore the maze for 5 min. The number of entries into the open and closed arms and the time spent in open arms was measure by an observer blind to treatment
(§1) To examine the effects of endogenous adropin on a subject's cognitive ability, 34 male C57BL/6J (B6) mice, aged 18 months, were treated with exogenous adropin^34-76. Mice were purchased from The Jackson Laboratory (Bar Harbor, Me.). After acclimation for 1 month, mice were separated into two weight matched groups of 15 mice: Group 1 adropin^34-76 treatment group and Group 2 saline vehicle control.
(§2) The mice were administered a single intraperitoneal injection (volume 100 μl) each morning (0900h) for 4 weeks. Group 1 was administered adropin^34-76 at a dose of 90 nmol/kg/day. Group 2 was administered saline. The peptide was purchased from Neoscientific Inc. Behavioral testing began after 2 weeks of injections. Injections continued though testing until 4 weeks.
A non-amnesic subject will spend more time exploring the novel object than the familiar one. When adropin treated and vehicle treated mice were subjected to the Novel Object Recognition test, adropin treated mice spent more time exploring the novel object (FIG. 11, Table 1)

[3] = Tolerability of adropin^34-76 in mice; format: in vivo, mouse
Excerpt: (§3) Using mice, the Inventors have shown that administration of adropin^34-76, in doses as low as 90 nmol/kg/day, delivered as two 45 nmol/kg injections, can be effective in producing changes in metabolism. Dose as high as 900 nmol/kg/d are well tolerated in mice. While the doses required for a desired clinical effect in humans is expected to vary between patients, the 90 nmol/kg dose administered by subcutaneous, intramuscular, or intravenous injection, either once or twice a day, may represent a preferred treatment protocol. It is anticipated that the treatments would be administered daily, although long-acting formulations involving weekly injections are envisaged. The optimum dose and frequency for a particular subject may be determined by the patient's treating physician, based on the patient's cognitive response. It is anticipated that adropin therapy may or may not improve a subject's cognitive function relative to current baseline, however adropin therapy may result in significant delays in the advancement of the disease. Improvement may manifest as a significant delay or a reduced rate of subsequent cognitive decline.

[4] = Body weight and survival during 4 weeks of adropin^34-76 injections; format: in vivo; conditions: group 1 (adropin^34-76, 90 nmol/kg/day ip), 15 mice
Description: as §1, §2

[5] = system: Hippocampal gene expression; experiment: Hippocampal gene expression (cytokines, growth factors) after TBI; format: in vivo, mouse; conditions: TBI+Adr vs TBI+veh and Sham
Description: FIG. 18 illustrates Hippocampal gene expression. There are increases in the expression of cytokines (significant for IL16, CCI2, IL17) in the hippocampus of TBI-veh mice versus uninjured (sham) controls TBI also appears to result in changes in expression of growth factors (BDNF, VEGF). In most cases, these changes were attenuated by adropin treatment.
Gene expression was assessed using qRT-PCR as previously described. Hippocampal and cortical tissue samples were dissected from fresh brains and snap frozen brains on dry-ice cold isopentane. Total RNA was extracted using Trizol (Invitrogen, Life Technologies) and treated with a DNAfree kit (Ambion, Life Technologies). […] Quantitative PCR was performed in 96-well plates using Taqman gene expression and QuantStudio 7 Detection Systems (Applied Biosystems, Life Technologies); 36B4 was used as the reference gene.
(§4) TBI PROCEDURE: Mice were exposed to mild closed-head concussive TBI. […] Adequate anesthesia was determined by the lack of both the corneal reflex and toe pinch reflex. […] Following Isoflurane anesthesia and the weight drop procedure, mouse respiration, heart rate and righting reflex was monitored to ensure recovery. The righting reflex time was recorded for each mouse. […] When the mouse moves from a supine to a prone position, i.e., rights itself, the time will be recorded. […]

[6] = system: male C57BL/6J (B6) mice, aged 18 months; experiment: Aversive T-maze retention (retest after 7 days), aged mice treated with adropin^34-76; format: in vivo, mouse; conditions: 90 nmol/kg/day ip
Description: (§5) Memory retention and acquisition were assessed using an aversive T-maze and novel objective recognition, as previously described (Farr et al., (2016) J Alzheimers Dis.; 54(4):1339-1348). Briefly, the T-maze consists of a black plastic alley with a start box at one end and two goal boxes at the other. An electrifiable floor of stainless steel rods run throughout the maze to deliver a foot-shock using a scrambled grid floor shocker (Model E13-08, Coulbourn Instruments, Whitehall, Pa.). Mice are not permitted to explore the maze prior to training. A block of training trials begins when mice are placed in the start box. The guillotine door is raised and a cue buzzer sounded simultaneously (doorbell type, at 55 dB); 5s later a mild aversive foot-shock is applied with an intensity of 0.35 mA. The arm of the maze entered on the first trial is designated “incorrect” and the mild foot-shock continued until the mouse enters the other goal box, which in all subsequent trials is designated “correct” for each mouse. Mice are trained until they made one active avoidance, with an inter-trial interval of 30-35s. The number of trials to make one active avoidance is the measure of acquisition. Retention is tested 7d later, with training continued until the criterion of making five active avoidances in six consecutive trials is achieved. The number of trials needed to reach this criterion is the measure of retention (Butler et al., (2012) The Journal of clinical endocrinology and metabolism; 97(10):3783-3791; Wong et al., (2014) The Journal of biological chemistry; 289(37):25976-25986).
as §1, §2
(FIG. 12, Table 3) Mice were retested in the maze after 7 days and Adropin treated mice retained learned memories and complete the maze in lets time.

[7] = system: Male C57BL/6J B6 mice subjected to TBI; experiment: T-maze retention after mild closed-head traumatic brain injury (TBI); format: in vivo, mouse
Description: FIG. 16 illustrates the results of T-maze data from adropin treated and adropin transgenic mice after traumatic brain injury. SHAM are mice handled but not subject to injury. Veh are mice treated with 0.9% saline. […] (A) Mice used were males, aged 10-14 weeks, purchased from the Jackson laboratory. (B) “TG” are adropin transgenic mice. “WT” are wild-type littermates. All mice were males aged 9-12 months.
Memory retention and acquisition were assessed using an aversive T-maze and novel objective recognition, as previously described (Farr et al., (2016) J Alzheimers Dis.; 54(4):1339-1348). Briefly, the T-maze consists of a black plastic alley with a start box at one end and two goal boxes at the other. An electrifiable floor of stainless steel rods run throughout the maze to deliver a foot-shock using a scrambled grid floor shocker (Model E13-08, Coulbourn Instruments, Whitehall, Pa.). Mice are not permitted to explore the maze prior to training. A block of training trials begins when mice are placed in the start box. The guillotine door is raised and a cue buzzer sounded simultaneously (doorbell type, at 55 dB); 5s later a mild aversive foot-shock is applied with an intensity of 0.35 mA. The arm of the maze entered on the first trial is designated “incorrect” and the mild foot-shock continued until the mouse enters the other goal box, which in all subsequent trials is designated “correct” for each mouse. Mice are trained until they made one active avoidance, with an inter-trial interval of 30-35s. The number of trials to make one active avoidance is the measure of acquisition. […]
as §4

[8] = Metabolic effect of adropin^34-76 administration in mice; format: in vivo, mouse; conditions: delivered as two 45 nmol/kg injections
Excerpt: as §3

[9] = system: male C57BL/6J (B6) mice, aged 18 months; experiment: Aversive T-maze acquisition, aged mice treated with adropin^34-76; format: in vivo, mouse; conditions: 90 nmol/kg/day ip
Description: as §5, §1, §2
Mice prepared with adropin or placebo in Example 3 were subjected to the Acquisition T-maze test.

plasma cytokine levels = experiment: Plasma cytokine levels after TBI; format: in vivo, mouse; conditions: TBI followed by adropin vs TBI followed by saline
Description: FIG. 17 illustrates plasma cytokine levels of mice that were: uninjured, subjected to TBI, and subjected to TBI followed by adropin injections.
TBI PROCEDURE: Mice were exposed to mild closed-head concussive TBI. Mice were anesthetized with isoflurane 2-4% and placed under a device consisting of a Plexiglas tube (inner diameter 13 mm) placed vertically over the animal's head. Adequate anesthesia was determined by the lack of both the corneal reflex and toe pinch reflex. Each mouse received 90 sec Isoflurane anesthesia in the induction chamber. The injury was induced by dropping a 25-gm acrylic weight from 80 cm height down the Plexiglas tube, striking the skull. This weight was chosen based upon literature using this type of device (Tweedie et al. (2016) PLoS One. 11(6):e0156493; Zohar et al. (2011) Acta Neurobiol Exp. 71:36-45). […] Following Isoflurane anesthesia and the weight drop procedure, mouse respiration, heart rate and righting reflex was monitored to ensure recovery. The righting reflex time was recorded for each mouse. […] When the mouse moves from a supine to a prone position, i.e., rights itself, the time will be recorded. […] One hour following the weight drop injury four reflexes were checked and recorded: the corneal reflex in both eyes, hindleg extension when held by the tail, startle response from a puff of air, and the ability to walk with a normal gate. […]

[10] = n = 14, SEM in next cell, P <0.0001 vs vehicle

adropin^34-76 (CHSRSADVDSLSESSPNSSPGPCPEKAPPPQKPSHEGSYLLQP; Adropin; UniProt Q6UWT2 34-76, looked up, fragment)
metabolic changes after intraperitoneal injection, in words [1]: metabolic changes suggesting improvements in glucose control and reduced risk for type 2 diabetes
Novel Object Recognition, result in words vs vehicle treated mice ([2]; 90 nmol/kg/day ip): improved cognitive performance
Novel Object Recognition, difference between means (Adropin vs. Vehicle) ([2]; 90 nmol/kg/day ip, vehicle mean 43.90): 14.99
Novel Object Recognition, mean (Adropin) ([2]; n = 15, SEM in next cell, P 0.0183 vs vehicle, unpaired t test, 90 nmol/kg/day ip): 58.88
Novel Object Recognition test, 24 Hour delay % Novel Object (individual mice) ([2]; one value per mouse, 90 nmol/kg/day ip for 4 weeks, testing after 2 weeks): 55.56% and 77.50% and 66.67% and 79.10% and 51.06% and 100.00% and 51.61% and 46.43% and 42.86% and 53.06% and 37.50% and 40.74% and 64.58% and 62.50% and 58.82%
dose well tolerated [3]: ≤ 900 nmol/kg/day
deaths during treatment [4]: One mouse in group 1 died
TBI-induced changes in hippocampal cytokine and growth factor expression, in words [5]: these changes are attenuated in most cases
T-maze Retention, difference between means (Adropin vs. Vehicle) ([6]; vehicle mean 9.200): −2.343
T-maze Retention, mean (Adropin) [6, 10]: 6.857
T-maze Retention (individual mice) ([6]; one value per mouse, trials to five active avoidances in six consecutive trials, 7 d later): 7. (7×) and 8. and 6. (5×) and 9.
T-maze retention, result in words vs vehicle ([6]; retested after 7 days): superior performance
deficits in spatial learning and memory after TBI ([7]; 450 nmol/kg iv at 1 h and 450 nmol/kg ip at 24 h post-injury, male B6 mice): exhibited protection from deficits in spatial learning and memory
T-maze retention after TBI, compared with uninjured vehicle treated controls ([7]; TBI+Adro vs SHAM+Veh): not significantly different
T-maze retention after TBI, compared with TBI followed by saline ([7]; TBI+Adro vs TBI+Veh, injections 1 h and 24 h post-injury, ** 99% confidence): significantly improved
dose effective in producing changes in metabolism [8]: ≥ 90 nmol/kg/day
T-maze acquisition, result in words vs placebo treated mice [9]: performed better
T-maze acquisition, difference between means (Adropin vs. Vehicle) ([9]; vehicle mean 10.80): −3.443
T-maze acquisition, mean (Adropin) [9, 10]: 7.357
T-maze acquisition (individual mice) ([9]; one value per mouse, number of trials to make one active avoidance): 7. (5×) and 8. (4×) and 9. (2×) and 6. (3×)
plasma cytokine levels after TBI, in words (plasma cytokine levels): possible reduction in inflammatory responses to TBI
